SMILES strings stand for the structures.

In the assay the target is mGluR4 (UniProt Q14833). The assay can be described thus: mGluR4 potentiation assay (EC50 for potentiation at EC20 agonist; fluorometric plate reader, Ca2+ or thallium dye). The format is cell-based. Conditions: potentiation of mGluR4; species of receptor not given. As to the method:
The disclosed compounds and compositions can be evaluated for their ability to act as a potentiator of metabotropic glutamate receptor activity, in particular mGluR4 activity, by any suitable known methodology known in the art. For example, Chinese Hamster Ovary (CHO) cells transacted with human mGluR4 or HEK cells co-transfected with rat mGluR4 and the G-protein regulated Inwardly Rectifying Potassium channel (GIRK) were plated in clear bottom assay plates for assay in a Hamamatsu FDSS Fluorometric Plate Reader. The cells were loaded with either a Ca2+-sensitive fluorescent dye or the thallium responsive dye and the plates were washed and placed into a suitable kinetic plate reader. For human mGluR4 assays, a fluorescence baseline was established for 3-5 seconds, the disclosed compounds were then added to the cells, and the response in cells was measured. Approximately two and a half minutes later, a concentration of mGluR4 orthosteric agonist (e.g. glutamate or L-AP4) eliciting approximately 20% (EC20) of the maximal agonist response was added to the cells, and the response was measured. Two minutes later, a concentration of mGluR4 agonist (e.g. glutamate or L-AP4) eliciting 80% (EC80) of the maximal agonist response was added to the cells, and the response was measured. For rat mGluR4/GIRK experiments, a baseline was established for approximately five seconds, disclosed compounds were added, and either an EC20 or EC80 concentration of agonist was added approximately two and one half minutes later. Potentiation of the agonist response of mGluR4 by the disclosed compounds was observed as an increase in response to the EC20 concentration of agonist in the presence of compound compared to the response to agonist in the absence of compound. Similarly, antagonism of the agonist response of mGluR4 by the disclosed compounds was observed as a decrease in response to the EC80 concentration of agonist in the presence of compound compared to the response to agonist in the absence of compound.
The above described assay operated in two modes. In the first mode, a range of concentrations of the disclosed compounds are added to cells, followed by a single fixed concentration of agonist. If the compound acts as a potentiator, an EC50 so value for potentiation and a maximum extent of potentiation by the compound at this concentration of agonist is determined by non-linear curve fitting. If the compound acts as a noncompetitive antagonist, an IC50 value is determined by non-linear curve fitting. In the second mode, several fixed concentrations of the disclosed compounds are added to various wells on a plate, followed by a range in concentrations of agonist for each concentration of disclosed compound. The EC50 values for the agonist at each concentration of compound are determined by non-linear curve fitting. A decrease in the EC50 value of the agonist with increasing concentrations of the sample compound (a leftward shift of the agonist concentration-response curve) is an indication of the degree of mGluR4 potentiation at a given concentration of the sample compound. A decrease in the maximal response of the agonist with increasing concentrations of the sample compounds, with or without a rightward shift in agonist potency, is an indication of the degree of noncompetitive antagonism at mGluR4. The second mode also indicates whether the sample compounds also affect the maximum response to mGluR4 to agonists.
For the compound `Cc1noc2cc(Nc3n[nH]c4cccnc34)ccc12` [Example 1, 3-methyl-N-(1H-pyrazolo[4,3-b]pyridin-3-yl)benzo[d]isoxazol-6-amine], the EC50 came out at 1860 nM. Under `CCC(F)(F)c1noc2cc(Nc3n[nH]c4cccnc34)ccc12` [Example 179, 3-(1,1-difluoropropyl)-N-(1H-pyrazolo[4,3-b]pyridin-3-yl)-1,2-benzoxazol-6-amine] stands 1990 nM.

For the compound `CCCCC(F)(F)c1noc2cc(Nc3n[nH]c4cccnc34)ccc12` [Example 136, 3-(1,1-difluoropentyl)-N-(1H-pyrazolo[4,3-b]pyridin-3-yl)-1,2-benzoxazol-6-amine], the EC50 was over 10000 nM. With `CC(C)(C)Cc1noc2cc(Nc3n[nH]c4cc(F)cnc34)cc(F)c12` [Example 151, 3-(2,2-dimethylpropyl)-4-fluoro-N-(6-fluoro-1H-pyrazolo[4,3-b]pyridin-3-yl)-1,2-benzoxazol-6-amine] the figure was over 10000 nM. With `c1cnc2c(Nc3ccc4c(OC5CCOCC5)noc4c3)n[nH]c2c1` [Example 26, N-(1H-pyrazolo[4,3-b]pyridin-3-yl)-3-((tetrahydro-2H-pyran-4-yl)oxy)benzo[d]isoxazole-6-amine] the figure was 1200 nM. With `CN(C(=O)Cc1noc2cc(Nc3n[nH]c4cccnc34)ccc12)c1cccnc1` [Example 158, N-methyl-2-[6-(1H-pyrazolo[4,3-b]pyridin-3-ylamino)-1,2-benzoxazol-3-yl]-N-(3-pyridyl)acetamide], the EC50 was 1170 nM. Under `CC(C)(C)Cc1noc2cc(Nc3n[nH]c4cccnc34)cnc12` [Example 171, 3-(2,2-dimethylpropyl)-N-(1H-pyrazolo[4,3-b]pyridin-3-yl)isoxazolo[4,5-b]pyridin-6-amine] stands 801 nM; under `c1cnc2c(Nc3ccc4c(CN5CCOCC5)noc4c3)n[nH]c2c1` [Example 133, 3-(morpholinomethyl)-N-(1H-pyrazolo[4,3-b]pyridin-3-yl)-1,2-benzoxazol-6-amine; 2,2,2-trifluoroacetic acid], 5770 nM. Under `c1cc2oncc2cc1Nc1n[nH]c2c1CCCC2` [Example 21, N-(4,5,6,7-tetrahydro-1H-indazol-3-yl)benzo[d]isoxazol-5-amine] stands over 10000 nM; under `Cc1noc2c(F)cc(Nc3n[nH]c4ncccc34)cc12` [Example 107, 7-fluoro-3-methyl-N-(1H-pyrazolo[3,4-b]pyridin-3-yl)-1,2-benzoxazol-5-amine], 53.1 nM. With `O=C(Cc1noc2cc(Nc3n[nH]c4cccnc34)ccc12)NC1CC(F)(F)C1` [Example 140, N-(3,3-difluorocyclobutyl)-2-[6-(1H-pyrazolo[4,3-b]pyridin-3-ylamino)-1,2-benzoxazol-3-yl]acetamide] the figure was over 10000 nM; with `O=C(Cc1noc2cc(Nc3n[nH]c4cccnc34)ccc12)N1CC(F)(F)C1` [Example 144, 1-(3,3-difluoroazetidin-1-yl)-2-[6-(1H-pyrazolo[4,3-b]pyridin-3-ylamino)-1,2-benzoxazol-3-yl]ethanone], 2580 nM; with `Cc1noc2c(F)cc(Nc3n[nH]c4nccnc34)cc12` [Example 106, 7-fluoro-3-methyl-N-(1H-pyrazolo[3,4-b]pyrazin-3-yl)-1,2-benzoxazol-5-amine], 23.1 nM.

Turning to `CC(C)(C)Cc1noc2cc(Nc3n[nH]c4ccccc34)ccc12` [Example 17, N-(1H-indazol-3-yl)-3-neopentylbenzo[d]isoxazol-6-amine], the EC50 was over 10000 nM. Under `CCCCC(F)c1noc2cc(Nc3n[nH]c4cccnc34)ccc12` (stereo not shown) [Example 147, 3-(1-fluoropentyl)-N-(1H-pyrazolo[4,3-b]pyridin-3-yl)-1H-benzoxazol-6-amine] stands 1490 nM. As for `CCCCNC(c1noc2cc(Nc3n[nH]c4cccnc34)ccc12)C(F)(F)F` (stereo not shown) [Example 180, 3-[1-(butylamino)-2,2,2-trifluoro-ethyl]-N-(1H-pyrazolo[4,3-b]pyridin-3-yl)-1,2-benzoxazol-6-amine; 2,2,2-trifluoroacetic acid], the EC50 is 810 nM. Under `CCC(CC)c1noc2cc(Nc3n[nH]c4nccnc34)ccc12` [Example 83, 3-(1-ethylpropyl)-N-(1H-pyrazolo[3,4-b]pyrazin-3-yl)-1,2-benzoxazol-6-amine] stands 97.1 nM. Under `CC(c1noc2cc(Nc3n[nH]c4cccnc34)ccc12)C(F)F` (stereo not shown) [Example 178, 3-(2,2-difluoro-1-methyl-ethyl)-N-(1H-pyrazolo[4,3-b]pyridin-3-yl)-1,2-benzoxazol-6-amine] stands 1710 nM; under `c1cnc2c(Nc3ccc4c(C5CCCC5)noc4c3)n[nH]c2n1` [Example 7, 3-cydopentyl-N-(1H-pyrazolo[3,4-b]pyrazin-3-yl)benzo[d]isoxazol-6-amine], 527 nM; under `CCCC(C)c1noc2cc(Nc3n[nH]c4ncccc34)ccc12` (stereo not shown) [Example 95, 3-(1-methylbutyl)-N-(1H-pyrazolo[3,4-b]pyridin-3-yl)-1,2-benzoxazol-6-amine], 673 nM. Under `CC1(COc2noc3cc(Nc4n[nH]c5cccnc45)ccc23)COC1` [Example 41, 3-[(3-methyloxetan-3-yl)methoxy]-N-(1H-pyrazolo[4,3-b]pyridin-3-yl)-1,2-benzoxazol-6-amine] stands 2820 nM. Regarding `CC(C)(C)Cc1noc2cc(Nc3n[nH]c4cccnc34)cc(F)c12` [Example 145, 3-(2,2-dimethylpropyl)-4-fluoro-N-(1H-pyrazolo[4,3-b]pyridin-3-yl)-1,2-benzoxazol-6-amine; 2,2,2-trifluoroacetate acid], the EC50 was 1450 nM.

As for `Cc1noc2c(F)cc(Nc3n[nH]c4cccnc34)cc12` [Example 105, 7-fluoro-3-methyl-N-(1H-pyrazolo[4,3-b]pyridin-3-yl)-1,2-benzoxazol-5-amine], the EC50 worked out at 77.1 nM.

For `Fc1cncc(OCc2noc3cc(Nc4n[nH]c5cccnc45)ccc23)c1` [Example 176, 3-[(5-fluoro-3-pyridyl)oxymethyl]-N-(1H-pyrazolo[4,3-b]pyridin-3-yl)-1,2-benzoxazol-6-amine], the EC50 turned out to be 767 nM. Under `Cn1ncc2cc(Cc3noc4cc(Nc5n[nH]c6nccnc56)ccc34)ccc21` [Example 114, 3-[(1-methylindazol-5-yl)methyl]-N-(1H-pyrazolo[3,4-b]pyrazin-3-yl)-1,2-benzoxazol-6-amine] stands 42.3 nM; under `c1cnc2c(Nc3ccc4c(C5CCCC5)noc4c3)n[nH]c2c1` [Example 2, 3-cyclopentyl-N-(1H-pyrazolo[4,3-b]pyridin-3-yl)benzo[d]isoxazol-6-amine], 523 nM. With `Cc1ccc(OCc2noc3cc(Nc4n[nH]c5cccnc45)ccc23)cn1` [Example 175, 3-[(6-methyl-3-pyridyl)oxymethyl]-N-(1H-pyrazolo[4,3-b]pyridin-3-yl)-1,2-benzoxazol-6-amine] the figure was 588 nM; with `CC(C)(C)C(F)c1noc2cc(Nc3n[nH]c4cccnc34)ccc12` (stereo not shown) [Example 146, 3-(1-fluoro-2,2-dimethyl-propyl)-N-(1H-pyrazolo[4,3-b]pyridin-3-yl)-1,2-benzoxazol-6-amine], 2110 nM. Take `CCC(CC)c1noc2cc(Nc3n[nH]c4ncccc34)ccc12` [Example 84, 3-(1-ethylpropyl)-N-(1H-pyrazolo[3,4-b]pyridin-3-yl)-1,2-benzoxazol-6-amine]: the EC50 stood at 522 nM. With `CCc1noc2cc(Nc3n[nH]c4cccnc34)ccc12` [Example 16, 3-ethyl-N-(1H-pyrazolo[4,3-b]pyridin-3-yl)benzo[d]isoxazol-6-amine] the figure was 1300 nM. Turning to `O=C(Cc1noc2cc(Nc3n[nH]c4cccnc34)ccc12)N1CCCC1c1ccccn1` (stereo not shown) [Example 162], the EC50 is over 10000 nM.

Source of the values: US9980945B2, “Benzoisoxazole-substituted compounds as MGLUR4 allosteric potentiators, compositions, and methods of treating neurological dysfunction” (Vanderbilt University, priority 2015, dated 2018).
